Data as given in ChEMBL document CHEMBL1201862, “PubChem BioAssay data set” (2004).
The source made the active and inactive calls.

Tests used:
Streptococcus = assay: GAS UMAA2166 growth inhibition – luminescence, BacTiterGlo, counter-screen for streptokinase expression inhibitor project, dose response (AID 1915); format: functional, organism-based;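 also: potency for reduction of bacterial viability or growth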
[1] = system: Streptococcus sp. 'group A'; assay: Streptococcus pyogenes SK(-)GAS viability under kanamycin – luminescence, BacTiterGlo, confirmation, counter-screen for streptokinase expression inhibitor project, dose response (AID 1900); format: functional, organism-based
HEK293 [2] = assay: cells; details: Homo sapiens
HEK293 [3] = assay: cells; details: Homo sapiens; remark: listed apart in the source
Streptokinase A = target: T1, Streptokinase A (Streptococcus pyogenes serotype M1, UniProt P10520); assay: viability-normalized secreted streptokinase activity reduction – plasminogen activation absorbance, OD405, dose response (AID 1914); format: functional, Streptococcus pyogenes M1 GAS;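 also: secreted streptokinase activity via plasminogen activation per viability signal from cell pellet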
T1 sequence (P10520 whole entry): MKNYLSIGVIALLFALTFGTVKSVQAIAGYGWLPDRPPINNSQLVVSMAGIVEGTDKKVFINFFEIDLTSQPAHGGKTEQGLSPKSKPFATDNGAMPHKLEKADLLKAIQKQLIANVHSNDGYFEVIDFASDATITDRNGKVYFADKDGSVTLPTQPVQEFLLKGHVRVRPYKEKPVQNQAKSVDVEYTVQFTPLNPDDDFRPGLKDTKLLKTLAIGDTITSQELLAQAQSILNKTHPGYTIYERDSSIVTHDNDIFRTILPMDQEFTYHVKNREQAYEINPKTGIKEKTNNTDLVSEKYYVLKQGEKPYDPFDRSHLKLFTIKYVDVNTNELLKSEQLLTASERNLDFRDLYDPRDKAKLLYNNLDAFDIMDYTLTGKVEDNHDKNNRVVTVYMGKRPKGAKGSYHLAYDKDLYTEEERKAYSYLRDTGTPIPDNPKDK

Escherichia coli = assay: microbe, parasite or virus in culture
Cytochrome P450 3A4 = Cytochrome P450 3A4 (Homo sapiens, UniProt P08684);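 also: CYP3A4 tested as one member of a cytochrome P450 panel screen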
Cytochrome P450 3A4, sequence (P08684 whole entry): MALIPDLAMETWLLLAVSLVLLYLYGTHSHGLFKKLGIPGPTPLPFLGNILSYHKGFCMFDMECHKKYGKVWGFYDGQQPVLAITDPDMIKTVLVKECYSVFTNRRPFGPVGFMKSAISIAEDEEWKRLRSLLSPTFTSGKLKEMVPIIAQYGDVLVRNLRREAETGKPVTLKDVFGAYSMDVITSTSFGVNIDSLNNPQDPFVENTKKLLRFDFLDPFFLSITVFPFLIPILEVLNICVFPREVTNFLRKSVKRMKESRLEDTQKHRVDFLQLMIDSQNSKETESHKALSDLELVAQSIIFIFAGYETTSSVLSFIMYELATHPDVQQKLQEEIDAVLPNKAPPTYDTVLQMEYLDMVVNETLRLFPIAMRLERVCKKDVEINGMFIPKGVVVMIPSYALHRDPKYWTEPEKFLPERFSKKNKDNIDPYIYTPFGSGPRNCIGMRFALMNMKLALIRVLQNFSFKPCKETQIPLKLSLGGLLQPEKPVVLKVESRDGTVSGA

Cytochrome P450 2C9 = Cytochrome P450 2C9 (Homo sapiens, UniProt P11712)
Cytochrome P450 2C9, sequence (P11712 whole entry): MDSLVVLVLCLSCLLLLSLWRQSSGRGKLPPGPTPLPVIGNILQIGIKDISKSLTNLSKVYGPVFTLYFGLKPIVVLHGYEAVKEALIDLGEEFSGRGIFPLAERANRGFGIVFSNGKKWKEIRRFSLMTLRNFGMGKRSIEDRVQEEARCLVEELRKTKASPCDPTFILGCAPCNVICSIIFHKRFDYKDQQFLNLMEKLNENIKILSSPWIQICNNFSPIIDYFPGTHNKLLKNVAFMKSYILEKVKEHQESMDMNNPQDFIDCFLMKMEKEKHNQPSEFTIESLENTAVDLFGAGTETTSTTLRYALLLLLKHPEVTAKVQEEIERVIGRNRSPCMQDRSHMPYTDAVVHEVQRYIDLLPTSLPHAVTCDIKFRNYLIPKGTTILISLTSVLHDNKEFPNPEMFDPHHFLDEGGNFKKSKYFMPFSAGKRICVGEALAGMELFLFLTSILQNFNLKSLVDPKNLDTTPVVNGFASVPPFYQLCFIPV

[4] = Trypanosoma cruzi growth suppression in host cells – NIH3T3 host cells, beta-gal luminescence, confirmation (AID 2044); format: functional, cell-based;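 also: intracellular parasites grown in NIH/3T3 mouse fibroblasts as host cells; luminescent beta-galactosidase reporter signal from transgenic T. cruzi replicating inside host cells; inhibitors lower the luminescence signal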
cells = format: functional
[5] = NIH3T3 cell viability loss – ATP luminescence, mouse fibroblasts, counter-screen, dose response (AID 2010); format: functional, cell-based;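 also: cells exposed to compound for about 90 hours before reading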
[6] = microbe, parasite or virus in culture; format: functional; details: Mycobacterium tuberculosis
[7] = target: T2, Heat shock factor protein 1 (Mus musculus, UniProt P38532); assay: enhancement of HSF1-driven luciferase signal – cell-based, NIH3T3, luminescence, dose retest, confirmation (AID 435004); format: functional;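 also: stress induced by proteasome inhibitor MG132 added 30 min after compound; luciferase reporter driven by HSF1 response element in NIH3T3 cells; actives raise luminescence as potentiators of the MG132 stress response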
T2 sequence (P38532 whole entry): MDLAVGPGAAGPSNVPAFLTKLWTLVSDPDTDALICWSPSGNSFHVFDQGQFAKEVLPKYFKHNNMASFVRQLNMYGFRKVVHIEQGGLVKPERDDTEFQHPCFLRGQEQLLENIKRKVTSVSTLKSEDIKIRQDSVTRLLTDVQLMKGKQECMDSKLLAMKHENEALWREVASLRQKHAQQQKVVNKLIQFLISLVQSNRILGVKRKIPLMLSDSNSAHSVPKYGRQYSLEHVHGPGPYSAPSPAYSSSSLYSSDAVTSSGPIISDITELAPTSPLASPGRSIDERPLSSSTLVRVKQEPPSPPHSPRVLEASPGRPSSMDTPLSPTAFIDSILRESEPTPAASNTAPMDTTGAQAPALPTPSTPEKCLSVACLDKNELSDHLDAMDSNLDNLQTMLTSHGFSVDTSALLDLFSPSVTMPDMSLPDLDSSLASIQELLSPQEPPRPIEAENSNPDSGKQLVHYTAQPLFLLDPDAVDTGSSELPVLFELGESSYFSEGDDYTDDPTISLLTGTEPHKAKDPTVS

[8] = target: T3, Microphthalmia-associated transcription factor (Homo sapiens, UniProt O75030); assay: reducers of TRPM1 reporter luminescence, concentration series – cell-based, SK-MEL-5, cherry-picked, set 3, MITF inhibitor project, dose response (AID 493073); format: functional;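 also: SK-MEL-5 melanoma cells with luciferase driven by the MITF target TRPM1 promoter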
T3 sequence (O75030 whole entry): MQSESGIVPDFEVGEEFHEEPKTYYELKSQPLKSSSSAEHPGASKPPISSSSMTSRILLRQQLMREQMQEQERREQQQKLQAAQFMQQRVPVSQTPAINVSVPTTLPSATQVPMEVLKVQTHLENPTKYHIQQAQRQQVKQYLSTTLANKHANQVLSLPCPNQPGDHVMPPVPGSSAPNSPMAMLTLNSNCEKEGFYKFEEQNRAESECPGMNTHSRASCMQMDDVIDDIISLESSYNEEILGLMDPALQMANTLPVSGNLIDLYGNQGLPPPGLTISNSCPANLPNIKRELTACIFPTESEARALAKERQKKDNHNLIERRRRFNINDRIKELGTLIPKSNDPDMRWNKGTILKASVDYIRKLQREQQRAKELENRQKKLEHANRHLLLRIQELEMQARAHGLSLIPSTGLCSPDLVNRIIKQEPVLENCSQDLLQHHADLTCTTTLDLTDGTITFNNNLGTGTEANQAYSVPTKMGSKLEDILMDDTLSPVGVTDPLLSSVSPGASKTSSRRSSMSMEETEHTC

[9] = HepG2 cell cytotoxicity, dose response, cytotoxicity control for non-replicating M. tuberculosis project (AID 489018); format: functional; details: Mycobacterium tuberculosis
A-375 = assay: MITF: Counter assay: A375 proliferation Measured in Cell-Based System Using Plate Reader - 2084-03_Inhibitor_Dose_DryPowder_Activity. [Related pubchem assays (depositor defined):AID488944]; format: functional; details: Homo sapiens
[10] = THP-1 cell cytotoxicity, dose response, cytotoxicity control for non-replicating M. tuberculosis project (AID 489025); format: functional
[11] = Vero E6 cell cytotoxicity, dose response, cytotoxicity control for non-replicating M. tuberculosis project, secondary assay (AID 492998); format: functional, VeroE6; details: Vero C1008
Protein RecA = target: T4, Protein RecA (Mycobacterium tuberculosis, UniProt P9WHJ3); assay: Fluorescence Cell-Free Homogeneous Dose Retest to Identify Inhibitors of RecA-Intein Splicing Activity. [Related pubchem assays (depositor defined):AID2097, AID2223, AID489010, AID492950]; format: functional
T4 sequence (P9WHJ3 whole entry): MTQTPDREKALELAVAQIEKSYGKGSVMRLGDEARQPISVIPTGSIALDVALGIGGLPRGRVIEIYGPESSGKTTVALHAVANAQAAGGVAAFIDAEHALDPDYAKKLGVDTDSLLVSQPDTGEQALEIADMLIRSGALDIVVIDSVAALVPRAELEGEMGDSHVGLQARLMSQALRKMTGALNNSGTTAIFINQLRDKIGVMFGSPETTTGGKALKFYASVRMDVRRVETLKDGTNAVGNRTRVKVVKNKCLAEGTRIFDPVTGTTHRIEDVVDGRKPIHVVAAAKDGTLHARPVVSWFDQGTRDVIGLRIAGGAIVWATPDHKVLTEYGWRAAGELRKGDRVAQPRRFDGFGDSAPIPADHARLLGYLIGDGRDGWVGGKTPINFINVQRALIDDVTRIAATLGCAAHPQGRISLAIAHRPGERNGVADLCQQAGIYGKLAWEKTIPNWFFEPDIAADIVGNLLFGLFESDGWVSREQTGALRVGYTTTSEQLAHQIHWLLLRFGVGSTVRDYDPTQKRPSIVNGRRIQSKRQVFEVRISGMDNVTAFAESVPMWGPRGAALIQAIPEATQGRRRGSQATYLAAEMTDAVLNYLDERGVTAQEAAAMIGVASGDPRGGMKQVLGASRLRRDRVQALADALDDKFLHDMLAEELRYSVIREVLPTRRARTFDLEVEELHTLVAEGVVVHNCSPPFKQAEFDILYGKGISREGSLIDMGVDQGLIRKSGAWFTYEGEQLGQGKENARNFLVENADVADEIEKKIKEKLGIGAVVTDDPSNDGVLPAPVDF

[12] = target: T5, Replicative DNA helicase DnaB (Mycobacterium tuberculosis, UniProt P9WMR3); assay: DnaB intein splicing inhibitors, dose response, biochemical, cell-free fluorescence (AID 449749); format: functional
T5 sequence (P9WMR3 whole entry): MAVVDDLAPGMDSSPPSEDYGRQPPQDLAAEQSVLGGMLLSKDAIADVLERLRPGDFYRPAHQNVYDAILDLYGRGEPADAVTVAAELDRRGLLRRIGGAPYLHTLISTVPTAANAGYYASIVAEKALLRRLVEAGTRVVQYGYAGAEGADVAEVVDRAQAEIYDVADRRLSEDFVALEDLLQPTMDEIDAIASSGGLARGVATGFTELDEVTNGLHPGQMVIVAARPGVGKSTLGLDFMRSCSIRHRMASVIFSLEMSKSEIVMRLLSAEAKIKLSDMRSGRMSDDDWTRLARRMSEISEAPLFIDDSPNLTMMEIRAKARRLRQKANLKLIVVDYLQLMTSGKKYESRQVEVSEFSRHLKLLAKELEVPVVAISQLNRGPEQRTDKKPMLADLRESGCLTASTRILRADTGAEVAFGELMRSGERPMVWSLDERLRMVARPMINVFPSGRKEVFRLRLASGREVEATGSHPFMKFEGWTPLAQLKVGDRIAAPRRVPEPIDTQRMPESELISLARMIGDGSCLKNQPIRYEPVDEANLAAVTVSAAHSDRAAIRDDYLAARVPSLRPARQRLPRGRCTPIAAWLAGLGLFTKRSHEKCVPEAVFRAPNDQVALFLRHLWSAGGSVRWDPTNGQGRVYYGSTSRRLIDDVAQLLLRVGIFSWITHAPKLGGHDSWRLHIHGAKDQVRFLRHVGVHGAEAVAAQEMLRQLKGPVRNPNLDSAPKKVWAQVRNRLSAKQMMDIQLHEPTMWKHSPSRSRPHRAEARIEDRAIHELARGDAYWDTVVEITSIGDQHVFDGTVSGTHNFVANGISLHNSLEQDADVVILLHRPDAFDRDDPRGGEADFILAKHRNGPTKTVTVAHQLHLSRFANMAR

[13] = viability loss in HepG2 hepatoma cells – cell-based, ATP luminescence, cherry-pick, activator set 2, cytotoxicity control, dose response (AID 1053143); format: functional
[14] = target: T6, Neuropeptides B/W receptor type 1 (Homo sapiens, UniProt P48145); assay: Fluorescence-based dose response cell-based high throughput screening assay to identify antagonists of the G-protein coupled receptor 7 (GPR7). [Related pubchem assays: 1952 (Screening assay (GPR7 antagonists).), 1880 (Summary AID.)]; format: functional
T6 sequence (P48145 whole entry): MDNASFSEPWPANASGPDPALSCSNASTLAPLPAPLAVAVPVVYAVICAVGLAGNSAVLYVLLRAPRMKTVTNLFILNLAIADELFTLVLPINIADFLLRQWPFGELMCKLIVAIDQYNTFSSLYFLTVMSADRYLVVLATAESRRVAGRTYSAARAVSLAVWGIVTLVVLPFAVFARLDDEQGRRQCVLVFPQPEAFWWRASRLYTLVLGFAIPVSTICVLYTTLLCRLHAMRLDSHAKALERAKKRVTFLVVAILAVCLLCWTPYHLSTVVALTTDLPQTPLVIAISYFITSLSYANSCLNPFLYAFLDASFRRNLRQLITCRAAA

[15] = target: Melanin-concentrating hormone receptor 1 (Homo sapiens, UniProt Q99705); assay: Fluorescence-based counterscreen for antagonists of the G-protein coupled receptor 7 (GPR7): cell-based high throughput dose response assay to identify antagonists of the melanin-concentrating hormone receptor 1 (MCHR1).; format: functional
Melanin-concentrating hormone receptor 1, sequence (Q99705 whole entry): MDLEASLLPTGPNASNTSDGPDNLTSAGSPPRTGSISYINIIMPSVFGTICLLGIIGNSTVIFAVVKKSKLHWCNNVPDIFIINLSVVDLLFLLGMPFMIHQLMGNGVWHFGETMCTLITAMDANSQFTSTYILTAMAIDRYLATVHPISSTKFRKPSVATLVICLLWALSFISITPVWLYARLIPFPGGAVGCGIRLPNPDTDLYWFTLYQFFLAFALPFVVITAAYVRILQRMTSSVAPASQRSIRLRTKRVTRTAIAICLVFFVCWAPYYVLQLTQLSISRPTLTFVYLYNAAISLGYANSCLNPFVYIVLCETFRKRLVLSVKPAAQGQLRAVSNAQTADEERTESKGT

Which results are given for `Fc1ccc(-n2cc(-c3ccccc3)c3c(S)ncnc32)cc1`?
EC50 (Streptococcus): > 150 µM (not active); EC50 [1]: 12.1 µM (active); EC50 (HEK293 [2]): > 59.6 µM (inactive); EC50 (HEK293 [3]): > 59.6 µM (inactive); EC50 (Streptokinase A): > 150 µM (not active)

With `CO[C@H]1C=CO[C@@]2(C)Oc3c(C)c(O)c4c(O)c(c(C=NN5CCN(C)CC5)c(O)c4c3C2=O)NC(=O)C(C)=CC=C[C@H](C)[C@H](O)[C@@H](C)[C@@H](O)[C@@H](C)[C@H](OC(C)=O)[C@@H]1C` as the molecule, how does the AC50 (Escherichia coli) read?
The AC50 was 14.8 µM (active).

And the EC50 (Streptococcus)?
The EC50 was < 0.06 µM (active).

And the EC50 [1]?
The EC50 was < 0.06 µM (active).

For `CCOC(=O)N1CCN(CC(=O)c2ccc3c(c2)CCN3)CC1`, which AC50 (Cytochrome P450 3A4) is on record?
The AC50 was “inconclusive”.

What about the AC50 (Cytochrome P450 2C9) of the same molecule?
Its AC50 is 17.8 µM (inconclusive).

Which results are given for `CC(C)(C)c1ccc(Cn2c(=N)n(CC(O)c3ccco3)c3ccccc32)cc1` (stereo not given)?
EC50 [4]: 2.12 µM (active); IC50 (cells): 22 µM (active); EC50 [5]: > 60 µM (not active); CC50 [6]: 11.9 µM (active); EC50 [7]: > 260 µM (inactive); AC50 [8]: 11.8 µM (active); CC50 [9]: 9.26 µM (active); AC50 (A-375): 18.6 µM (active); CC50 [10]: 9.05 µM (active); CC50 [11]: 15.7 µM (active)

What does the source list for `O=C(Nc1ccccc1F)c1ccc([N+](=O)[O-])s1`?
EC50 [4]: 0.614 µM (active); AC50 (Escherichia coli): 27.5 µM (active); IC50 (cells): 4.91 µM (active); EC50 [5]: > 30 µM (not active); CC50 [10]: 28.8 µM (active); CC50 [11]: > 20 µM (active)

Which results are given for `COc1ccccc1NC(=O)c1cnc(SCC(=O)NCC2CCCO2)n(C)c1=O` (stereo not given)?
EC50 (Protein RecA): 10.8 µM (active); AC50 [12]: 9.19 µM (active); AC50 [8]: 8.88 µM (active); EC50 (HEK293 [2]): > 59.6 µM (inactive); AC50 [13]: 42.4 µM (active); EC50 (HEK293 [3]): > 59.6 µM (inactive)

With `Cc1ccccc1Oc1ncnc2oc(-c3ccccc3)cc12` as the molecule, how does the AC50 (Cytochrome P450 3A4) read?
Its AC50 is “inconclusive”.

What about the IC50 [14] of the same molecule?
Its IC50 is > 43.8 µM (not active).

And the IC50 [15]?
The IC50 was 24.3 µM (not active).
